{"source": "patent US20230201216A1", "about": "“AZELASTINE AS ANTIVIRAL TREATMENT” (priority 2020, published 2023)", "key": {"SARS-CoV-2 [1]": {"tested_on": "SARS-CoV-2", "details": "cells expressing TMPRSS2, including Calu-3; ref. Hoffmann et al.; cited from earlier work"}, "SARS-CoV-2 [2]": {"tested_on": "SARS-CoV-2", "assay_type": "cell-based"}, "SARS-CoV-2 [3]": {"tested_on": "SARS-CoV-2", "assay_type": "cell-based", "details": "for cytopathic effect (CPE) score: Vero E6, MOI 0.1, 48 hours post infection; for protective effect against SARS-CoV-2 cytopathic effect: Vero E6"}, "influenza H1N1": {"tested_on": "influenza H1N1", "assay_type": "cell-based", "details": "24 h post-infection, compared to buffer treated cells"}, "RANTES": {"tested_on": "RANTES", "assay_type": "cell-based, human"}, "[4]": {"tested_on": "MucilAir human nasal epithelial cells"}, "RSV Long strain": {"tested_on": "RSV Long strain", "assay": "RSV infection of HEp-2 cells, spot count and viral genome copy number by RT-PCR", "assay_type": "cell-based, Respiratory Syncytial Virus", "details": "for RSV infection of cells by spot count, compared to vehicle (DMSO) treated controls: all 3 settings, HEp-2"}, "IL-8": {"tested_on": "IL-8", "assay_type": "cell-based, human"}, "SARS-CoV-2 [5]": {"tested_on": "SARS-CoV-2", "assay_type": "cell-based", "details": "for viral particle/μL, co-administration / viral particle/μL, post-infection administration: Vero E6, 48 h post infection, median; for reduction of viral particle numbers (up to): Vero E6"}, "SARS-CoV-2 [6]": {"tested_on": "SARS-CoV-2", "details": "without virus infection; MucilAir"}, "SARS-CoV-2 B.1.351": {"tested_on": "SARS-CoV-2 B.1.351", "assay_type": "cell-based"}}, "note": "Counter-ions that a name gives are not always drawn. Like-named read-outs stand apart in the source and are kept apart here.", "data": [{"molecule": "CCN(CCO)CCCC(C)Nc1ccnc2cc(Cl)ccc12", "note": "(centres unmarked) [Hydroxychloroquine sulfate]", "values": [{"measurement": "potency on cells expressing the surface protease TMPRSS2", "setting": "SARS-CoV-2 [1]", "result": "significantly loses its potency"}]}, {"molecule": "CN1CCCC(n2nc(Cc3ccc(Cl)cc3)c3ccccc3c2=O)CC1", "note": "(centres unmarked) [Azelastine-HCl]", "values": [{"measurement": "reduction of viral particle numbers", "setting": "SARS-CoV-2 [2]", "result": "over 90%"}, {"measurement": "reduction of viral particle numbers (up to)", "setting": "SARS-CoV-2 [2]; 50 μM, Calu-3, MOI 0.01, 48 h", "result": "> 99", "unit": "%"}, {"measurement": "cytopathic effect (CPE) score", "setting": "SARS-CoV-2 [3]; 3.125 μM", "result": 2}, {"measurement": "cytopathic effect (CPE) score", "setting": "SARS-CoV-2 [3]; 6.25 μM", "result": 2}, {"measurement": "decrease in the viral copy", "setting": "influenza H1N1; 0.01% azelastine-HCl", "result": "~0.9", "unit": "log"}, {"measurement": "reduction of viral genome copy", "setting": "influenza H1N1; 0.01% azelastine-HCl", "result": 87.4, "unit": "%"}, {"measurement": "decrease in the viral copy", "setting": "influenza H1N1; 0.02% azelastine-HCl", "result": "~1.9", "unit": "log"}, {"measurement": "reduction of viral genome copy", "setting": "influenza H1N1; 0.02% azelastine-HCl", "result": 98.74, "unit": "%"}, {"measurement": "RANTES levels compared to buffer control", "setting": "RANTES", "result": "significantly reduced"}, {"measurement": "cytotoxicity", "setting": "[4]; 0.02% concentration, infected cells", "result": "no cytotoxicity"}, {"measurement": "cytotoxicity", "setting": "[4]; 0.02% concentration, non-infected cells", "result": 6.5, "unit": "%"}, {"measurement": "cytotoxicity", "setting": "[4]; lower (0.01%) concentration", "result": "no cytotoxicity"}, {"measurement": "RSV infection of cells by spot count, compared to vehicle (DMSO) treated controls", "setting": "RSV Long strain; 3.2 μM", "result": "~50", "unit": "%"}, {"measurement": "RSV infection of cells by spot count, compared to vehicle (DMSO) treated controls", "setting": "RSV Long strain; 6.4 μM", "result": "~50", "unit": "%"}, {"measurement": "Viral genome copy relative to DMSO", "setting": "RSV Long strain; 6.4 μM, co-administration, experiment #1", "result": 46.65, "unit": "%"}, {"measurement": "Viral genome copy relative to DMSO", "setting": "RSV Long strain; 6.4 μM, co-administration, experiment #2", "result": 53.22, "unit": "%"}, {"measurement": "Viral genome copy relative to DMSO", "setting": "RSV Long strain; 6.4 μM, preventive, experiment #1", "result": 65.52, "unit": "%"}, {"measurement": "Viral genome copy relative to DMSO", "setting": "RSV Long strain; 6.4 μM, preventive, experiment #2", "result": 54.71, "unit": "%"}, {"measurement": "Viral genome copy relative to DMSO", "setting": "RSV Long strain; 6.4 μM, therapeutic, experiment #1", "result": 47.96, "unit": "%"}, {"measurement": "Viral genome copy relative to DMSO", "setting": "RSV Long strain; 6.4 μM, therapeutic, experiment #2", "result": 51.05, "unit": "%"}, {"measurement": "IL-8 levels compared to buffer control", "setting": "IL-8", "result": "significantly reduced"}]}, {"molecule": "CN1CCCC(n2nc(Cc3ccc(Cl)cc3)c3ccccc3c2=O)CC1", "note": "(centres unmarked) [Azelastine, 4-[(4-chlorophenyl)methyl]-2-(1-methylazepan-4-yl)phthalazin-1-one]", "values": [{"measurement": "viral particle/μL, co-administration", "setting": "SARS-CoV-2 [5]; 3.125 μM", "result": 98.4, "unit": "viral particle/μL"}, {"measurement": "viral particle/μL, post-infection administration", "setting": "SARS-CoV-2 [5]; 3.125 μM", "result": 138, "unit": "viral particle/μL"}, {"measurement": "viral particle/μL, co-administration", "setting": "SARS-CoV-2 [5]; 6.25 μM", "result": 15.45, "unit": "viral particle/μL"}, {"measurement": "viral particle/μL, post-infection administration", "setting": "SARS-CoV-2 [5]; 6.25 μM", "result": 68.4, "unit": "viral particle/μL"}, {"measurement": "viral particle/μL, co-administration", "setting": "SARS-CoV-2 [5]; 12.5 μM", "result": 12.25, "unit": "viral particle/μL"}, {"measurement": "viral particle/μL, post-infection administration", "setting": "SARS-CoV-2 [5]; 12.5 μM", "result": 52, "unit": "viral particle/μL"}, {"measurement": "viral particle/μL, co-administration", "setting": "SARS-CoV-2 [5]; 25 μM", "result": 0.2, "unit": "viral particle/μL"}, {"measurement": "viral particle/μL, post-infection administration", "setting": "SARS-CoV-2 [5]; 25 μM", "result": 6.865, "unit": "viral particle/μL"}, {"measurement": "reduction of viral particle numbers (up to)", "setting": "SARS-CoV-2 [5]; co-administration (simulating prevention)", "result": "> 99", "unit": "%"}, {"measurement": "reduction of viral particle numbers (up to)", "setting": "SARS-CoV-2 [5]; post-infection administration (post-exposure or therapy)", "result": "> 97", "unit": "%"}, {"measurement": "tissue morphology of treated versus control cells", "setting": "SARS-CoV-2 [6]", "result": "No difference in tissue morphology"}, {"measurement": "inhibition (low viral numbers)", "setting": "SARS-CoV-2 B.1.351", "result": "over 90%"}]}, {"molecule": "Maraviroc", "values": [{"measurement": "cytopathic effect (CPE) score", "setting": "SARS-CoV-2 [3]; 3.125 μM", "result": 4}, {"measurement": "cytopathic effect (CPE) score", "setting": "SARS-CoV-2 [3]; 6.25 μM", "result": 4}, {"measurement": "cytopathic effect (CPE) score", "setting": "SARS-CoV-2 [3]; 12.5 μM", "result": 3}, {"measurement": "cytopathic effect (CPE) score", "setting": "SARS-CoV-2 [3]; 25 μM", "result": 3}, {"measurement": "cytopathic effect (CPE) score", "setting": "SARS-CoV-2 [3]; 50 μM", "result": 3}, {"measurement": "protective effect against SARS-CoV-2 cytopathic effect", "setting": "SARS-CoV-2 [3]; higher concentrations (12.5 to 50 μM)", "result": "only marginal protective effect"}, {"measurement": "protective effect against SARS-CoV-2 cytopathic effect", "setting": "SARS-CoV-2 [3]; lower concentrations", "result": "not effective at all"}]}]}
